Earlier results on one compound are cited in patent publication US12275835B1, “High clarity antimicrobial resins” (Phoenix Plastics L.P., priority 2020, dated 2025).

For one data set, the system named is Gram-positive bacteria. Conditions: within 30 seconds.
The subject of the next data set is Gram-negative bacteria. The conditions noted are these: within 30 seconds.

In the case of `N=C(NCCCCCCNC(=N)NC(=N)Nc1ccc(Cl)cc1)NC(=N)Nc1ccc(Cl)cc1` [chlorhexidine], the “kill of Gram-positive bacteria” value in the data set on Gram-positive bacteria was approximately 100%. In addition, in the data set on Gram-negative bacteria, the “kill of Gram-negative bacteria” value was approximately 100%.
